Results on 64 molecules are retold here after the supplement of paper PMC3974653.

Structures can show the parent of a compound that is named as a salt. Some results are limits rather than exact numbers.

In the assay the test system is MTT (mouse pheochromocytoma). As to the kind of experiment: IC50 of cell viability (ATP content). Particulars: (24 or 48 h). The method in brief: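 MTT mouse pheochromocytoma cells, cultured overnight at 37°C, 5% CO2 in DMEM with 5% FBS and 1% horse serum, were exposed in white 1536-well plates to library compounds in DMSO at final 0.5 nM to 46 µM (8 concentrations) for 24 or 48 hrs. CellTiter-Glo luminescence was normalised to positive-control (100%) and DMSO (0%) wells. A four-parameter logistic fit gave the IC50.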

On to `O=C(CCNNC(=O)c1ccncc1)NCc1ccccc1` [Nialamide], for which the “IC50 of cell viability” value was above 46 µM. The result for `C=C(Nc1ccc(OCC)cc1)Nc1ccc(OCC)cc1` [PHENACAINE HYDROCHLORIDE] reads above 46 µM; that for `CCOc1ccc(C[C@H]2NC(=O)CCSSC[C@@H](C(=O)N3CCC[C@H]3C(=O)N[C@@H](CCCN)C(=O)NCC(N)=O)NC(=O)[C@H](CC(N)=O)NC(=O)[C@H]([C@@H](C)O)NC(=O)[C@H]([C@@H](C)CC)NC2=O)cc1` [Atosiban], above 46 µM; that for `O=C(c1ccc(F)cc1)C1CCN(CCn2c(=S)[nH]c3ccccc3c2=O)CC1` [Altanserin hydrochloride], above 46 µM. The result for `Oc1ccc(Cl)cc1Sc1cc(Cl)ccc1O` [Fenticlor] reads above 46 µM; that for `CC(C)Cc1ccc([C@H](C)C(=O)O)cc1` [Dexibuprofen], above 46 µM.

In the case of `O=C(N[C@H](CO)[C@H](O)c1ccc([N+](=O)[O-])cc1)C(Cl)Cl` [Chloramphenicol], the “IC50 of cell viability” value is above 46 µM. The result for `CCC[C@@H]1CC(C(=O)NC(C2O[C@H](SC)C(OP(=O)(O)O)[C@H](O)[C@H]2O)[C@H](C)Cl)N(C)C1` (some centres undefined) [Clindamycin 2-phosphate] reads above 46 µM; that for `N=C(N)N.O=C(O)O` [GUANIDINE CARBONATE], above 46 µM. The result for `NCC1CCC(N)C(O[C@@H]2C(O)[C@H](O[C@H]3OC(CO)C(O)C(N)C3O)[C@@H](N)C[C@H]2N)O1.O=[S+]([O-])(O)O` (some centres undefined) [DIBEKACIN] reads above 46 µM. `CN(C)CCc1c[nH]c2cccc(OP(=O)(O)O)c12` [Psilocybin]: the “IC50 of cell viability” value was above 46 µM.

For the molecule `Br.COc1ccc2c(c1)[C@]13CCCC[C@@H]1[C@H](C2)N(C)CC3.O` [Dextromethorphan hydrobromide monohydrate], the “IC50 of cell viability” value was above 46 µM. The result for `O=C(O)c1ccccc1-c1ccc(C(F)(F)F)cc1` [Xenalipin] reads above 46 µM. For `OB(O)O` [Boric acid] the value was above 46 µM; for `OC/C=C/c1ccccc1` [Cinnamyl alcohol], above 46 µM; for `COc1cc(O)c(C(=O)c2ccccc2)cc1[S+](=O)([O-])O` [Sulisobenzone], above 46 µM. The result for `CCN(CC)CCOc1ccccc1OC` [Guaiactamine] reads above 46 µM; that for `COc1cccc([C@@]2(O)CCCC[C@@H]2CN(C)C)c1` [Tramadolum], above 46 µM; that for `CN[C@H]1C[C@@H](N)[C@H](O)[C@@H](O[C@@H]2O[C@H](CO)[C@H](O)[C@@H]3O[C@]4(O[C@@H]23)O[C@H]([C@@H](N)CO)[C@H](O)[C@@H](O)[C@H]4O)[C@@H]1O` [Hygromycin B], above 46 µM. For the molecule `CCCC(=O)N1CCCN(c2nc(N)c3cc(OC)c(OC)cc3n2)CC1` [BUNAZOSIN HYDROCHLORIDE], the “IC50 of cell viability” value was above 46 µM. The result for `O=C(NOCC1CC1)c1ccc(F)c(F)c1Nc1ccc(I)cc1Cl` [CI-1040] reads above 46 µM. As to `COc1ccc(C(=O)c2c(C)n(CCN3CCOCC3)c3ccccc23)cc1` [Pravadoline maleate], the “IC50 of cell viability” value was above 46 µM.

For the molecule `O=C(O)CCCCC1CCSS1` (stereo not drawn) [alpha-Lipoic acid], the “IC50 of cell viability” value is above 46 µM.

Consider `N#CC(C#N)=Cc1ccc(O)c(O)c1` [Tyrphostin 23], for which the “IC50 of cell viability” value is above 46 µM. Turning to `C[S+](=O)([O-])OCCC[NH2+]CCCO[S+](C)(=O)[O-]` [Improsulfan tosylate], the “IC50 of cell viability” value was above 46 µM.

`Cc1ccnc2c1NC(=O)c1cccnc1N2C1CC1` [Nevirapine]: the “IC50 of cell viability” value is above 46 µM.

Turning to `Cc1cccc(C(=O)O)c1O` [HYDROXYTOLUIC ACID], the “IC50 of cell viability” value is above 46 µM. On to `Cc1c(O)cc2c(c1C)O[C@](C)(CCC[C@H](C)CCC[C@H](C)CCCC(C)C)CC2`, for which the “IC50 of cell viability” value was above 46 µM. For `Cc1nc(-c2ccc(Cl)cc2)oc1COC(C)(C)C(=O)O` [Romazarit] the value was above 46 µM; for `[NH2][Pt]([NH2])([Cl])[Cl]` [cis-Dichlorodiamine platinum], above 46 µM; for `CC[C@@H]1OC(=O)[C@H](C)[C@H](O[C@H]2C[C@](C)(OC)[C@H](O)[C@H](C)O2)[C@H](C)[C@H](O[C@@H]2O[C@@H](C)C[C@@H](N(C)C)[C@H]2O)[C@](C)(O)C[C@H](C)/C(=N/OCOCCOC)[C@H](C)[C@H](O)[C@]1(C)O` [Roxithromycin], above 46 µM. For `CCCCCCCCCC(=O)O[C@H]1CC[C@H]2[C@@H]3CCC4=CC(=O)CC[C@]4(C)[C@H]3CC[C@]12C` [TESTOSTERONE DECANOATE] the value was above 46 µM. The result for `O=C(O)c1ccccn1` [CHROMIUM PICOLINATE] reads above 46 µM; that for `O=P([O-])(O)C(O)(Cc1cccnc1)P(=O)([O-])O` [Acide risedronique], above 46 µM; that for `COc1cc(/C=C2\CCC/C(=C\c3ccc(O)c(OC)c3)C2=O)ccc1O` [Ciclovalona], above 46 µM. Take `Nc1ncnc2c1ncn2[C@@H]1O[C@@H]2COP(=O)(O)O[C@H]2[C@H]1O` [Adenosine 3',5'-cyclic monophosphate]: the “IC50 of cell viability” value is above 46 µM.

As to `CN(C/C=C/C#CC(C)(C)C)Cc1cccc2ccccc12` [Terbinafine], the “IC50 of cell viability” value is above 46 µM. For `COc1cc(N)c(Cl)cc1C(=O)NC1CCN(Cc2ccccc2)CC1` [Clebopride maleate] the value was above 46 µM; for `C[C@]12CC[C@H](O)C[C@H]1CCC1C2CC[C@]2(C)[C@@H](c3ccc(=O)oc3)C[C@H]3O[C@]132` (some centres undefined) [BUFOGENIN], above 46 µM; for `CCCC(C)(COC(N)=O)COC(=O)NC(C)C` (centres undefined) [Carisoprodol], above 46 µM. On to `COc1ccc(C(=O)c2ccc(C)cc2)c(O)c1` [Mexenone], for which the “IC50 of cell viability” value is above 46 µM. The result for `CCOc1cc(N)c(Cl)cc1C(=O)NCC1CN(Cc2ccc(F)cc2)CCO1` (centres undefined) [MOSAPRIDE CITRATE] reads above 46 µM; that for `CNc1cc(OC)c(C(=O)NC2CCN(Cc3ccccc3)C2C)cc1Cl` (centres undefined) [Nemonapride], above 46 µM. For `Nc1ncnc2c1ncn2[C@H]1CC[C@@H](CO)O1` [2',3'-DIDEOXYADENOSINE] the value was above 46 µM; for `CN(C)C(=O)Oc1cccc([N+](C)(C)C)c1` [NEOSTIGMINE], above 46 µM; for `N#CC(C#N)=Cc1cc(O)c(O)c(O)c1` [Tyrphostin 25], above 46 µM. For the molecule `CCCCCCOC(=O)c1cccnc1` [HEXYL NICOTINATE], the “IC50 of cell viability” value was above 46 µM. The result for `CC(=O)N[C@@H](C=O)[C@@H](O)[C@H](O)[C@H](O)CO` [N-Acetylgalactosamine] reads above 46 µM; that for `C=C[C@@]1(C)C[C@H](OC(=O)CSC(C)(C)CNC(=O)[C@@H](N)C(C)C)[C@@]2(C)C(C)CC[C@@]3(CCC(=O)[C@@H]32)[C@H](C)[C@H]1O` (some centres undefined) [VALNEMULIN HYDROCHLORIDE], above 46 µM. For `Cc1ccc(/C(=C\CN2CCCC2)c2ccccn2)cc1` [trans-TRIPROLIDINE] the value was above 46 µM; for `CC(C)(C)NC[C@H](O)CSc1nc(-c2ccc(C(N)=O)s2)cs1` [AROTINOLOL HYDROCHLORIDE], above 46 µM; for `COc1ccc([C@@H]2Sc3ccccc3N(CCN(C)C)C(=O)[C@@H]2OC(C)=O)cc1` [DILTIAZEM], above 46 µM. The result for `NC1(CCC1)C2=CC=C(C=C2)C3=C(C=C/4C(=N3)\C=C/N5C(=O)N\N=C45)C6=CC=CC=C6` [MK-2206] reads above 46 µM; that for `CCOc1ccc(NC(C)=O)cc1` [Phenacetin], above 46 µM. As to `CO[C@@H]1C[C@H](O[C@H]2[C@H](C)[C@H](O[C@@H]3O[C@@H](C)C[C@@H](N(C)C)[C@H]3OC(C)=O)[C@H](C)C[C@]3(CO3)C(=O)[C@H](C)[C@H](OC(C)=O)[C@H](C)[C@H](C)OC(=O)[C@@H]2C)O[C@H](C)[C@H]1OC(C)=O` [Troleandomycin], the “IC50 of cell viability” value was above 46 µM.

With `O=[N+]([O-])c1c2ccccc2cc2ccccc12` [9-Nitroanthracene], the “IC50 of cell viability” value was above 46 µM. The result for `COc1cc([S+](C)[O-])ccc1-c1nc2ncccc2[nH]1` (centres undefined) [SULMAZOLE] reads above 46 µM; that for `CC(/C=C1\SC(=S)N(CC(=O)O)C1=O)=C\c1ccccc1` [Epalrestat], above 46 µM; that for `CN(C)CCO` [Deanol], above 46 µM. Take `CO/N=C1/CC2(CC3CC(CC=C(C)CC(C)C=CC=C4COC5C(O)C(C)=CC(C(=O)O3)C45O)O2)OC(/C(C)=C/C(C)C)C1C` (centres undefined) [Moxidectin]: the “IC50 of cell viability” value was above 46 µM.

Regarding `N[C@@H]1C[C@H]1c1ccccc1` [Tranylcypromine hydrochloride], the “IC50 of cell viability” value is above 46 µM. For `COc1cc(N[S+](=O)([O-])c2ccc(N)cc2)ncn1` [Sulfamonomethoxine] the value was above 46 µM; for `N=C(N)NCC1COc2ccccc2O1` (centres undefined) [Guanoxano], above 46 µM.

`CN(C)c1cc(NC(=O)CNC(C)(C)C)c(O)c2c1C[C@H]1C[C@H]3[C@H](N(C)C)C(O)=C(C(N)=O)C(=O)[C@]3(O)C(O)=C1C2=O` [Tigecycline]: the “IC50 of cell viability” value was above 46 µM.
